Measured values as given in US11098018B2, “Potassium channel inhibitors” (ACESION PHARMA ApS, priority 2017, dated 2021).

Target: T1, human SK3 channel (hKCa0.2.3) (Homo sapiens, UniProt Q9UGI6)
T1 construct: expressed in transfected cells
Assay: Automated patch clamping (QPatch whole-cell)
Format: cell-based
Settings: HEK-293 cells stably expressing human SK3; free calcium 400 nM; normalized to inhibitory effect of N-methyl bicuculline
Procedure: Automated whole cell patch-clamp recordings were performed using a QPatch 16 HT system and single-hole Qplates (Biolin Scientific, Sophion, Denmark) on HEK-293 cells stably expressing the human SK3 channel (hKCa0.2.3). Cells were cultured and prepared for experiments using normal cell culturing procedures. A total of 4-5 million cells were used per experiment. The Qpatch automatically generates giga sealing, whole-cell formation, compound application and recording of current. hKCa2.3 currents were recorded in symmetrical K^+ solutions, with an intracellular solution consisting of in mM: KCl 108; KOH/EGTA (ethylene glycol-bis(2-aminoethylether)-N,N,N′,N′-tetraacetic acid) 31.25/10; CaCl2) 8.1; MgCl2 1.2; HEPES (2-[4-(2-hydroxyethyl)piperazin-1-yl]ethanesulfonic acid) 10; KOH 15, pH adjusted to pH=7.2 with HCl. The free calcium concentration was calculated to 400 nM. The extracellular solution consisted of in mM: KCl 150; CaCl2) 0.1; MgCl2 3; HEPES 10; Glucose 10, pH=7.4 with KOH. The cells were held at 0 mV and hKCa0.2.3 currents were elicited by a linear voltage ramp from −80 mV to +80 mV (200 ms in duration) applied every 5th second. The compound application protocol consisted of 12 recording periods lasting from 50-200 s: 1) Baseline recordings in extracellular solution; 2) Application of the positive control N-methyl bicuculline (100 μM), which is characterized by full efficacy, fast on- and off-rate; 3-4) Wash-out; 5-9) Increasing concentrations of test compound to establish an IC50 value; 10-11) Wash-out; 12) positive control with compound NS8593 (N-[(1R)-1,2,3,4-tetrahydro-1-naphthalenyl]-1H-benzimidazol-2-amine) (1 μM). Data were sampled at 10 kHz, 4th order Bessel filter, cut-off frequency 3 kHz. Currents were compensated for run-down. Potency was quantified as the concentration needed to inhibit half of the SK channel activity and reported as an IC50 value. All effects of compounds of the present invention as tested were normalized to the observed inhibitory effect of N-methyl bicuculline.

Structure (SMILES)	IC50 [µM]
CC(C)CNC(=O)C(Nc1nc2ccccc2[nH]1)c1cccc(C(F)(F)F)c1 (centres unmarked) [Example 15, 2-[(1H-1,3-benzodiazol-2-yl)amino]-N-(2-methylpropyl)-2-[3-(trifluoromethyl)phenyl]acetamide]	< 10
CNC(=O)CC(Nc1nc2ccccc2[nH]1)c1cccc(C(F)(F)F)c1 (centres unmarked) [Example 2, 3-[(1H-1,3-benzodiazol-2-yl)amino]-N-methyl-3-[3(trifluoromethyl)phenyl]propanamide]	< 10
CNC(=O)C(Cc1cccc(C(F)(F)F)c1)Nc1nc2ccccc2[nH]1 (centres unmarked) [Example 8, 2-[(1H-1,3-benzodiazol-2-yl)amino]-N-methyl-3-[3-(trifluoromethyl)phenyl]propanamide]	< 100
CN(C)C(=O)C(Nc1nc2ccccc2[nH]1)c1cccc(C(F)(F)F)c1 (single isomer, unassigned; (-)) [Example 1a, (−)2-[(1H-1,3-benzodiazol-2-yl)amino]-N,N-dimethyl-2-[3-(trifluoromethyl)phenyl]acetamide]	< 10
CNC(=O)CCC(Nc1nc2ccccc2[nH]1)c1cccc(C(F)(F)F)c1 (single isomer, unassigned; (-)) [Example 25a, (−)-4-[(1H-1,3-benzodiazol-2-yl)amino]-N-methyl-4-[3-(trifluoromethyl)phenyl]butanamide]	< 10
CNC(=O)C(C)(Nc1nc2ccccc2[nH]1)c1cccc(C(F)(F)F)c1 (single isomer, unassigned; (+)) [Example 26a, (+)-2-[(1H-1,3-benzodiazol-2-yl)amino]-N-methyl-2-[3-(trifluoromethyl)phenyl]propanamide]	< 10
CNC(=O)CC(Nc1nc2ccccc2[nH]1)c1ccc(Cl)c(C)c1 (centres unmarked) [Example 10, 3-[(1H-1,3-benzodiazol-2-yl)amino]-3-(4-chloro-3-methylphenyl)-N-methylpropanamide]	< 10
CNC(=O)CC(Nc1nc2ccccc2[nH]1)c1cccc(C(F)(F)F)c1 (single isomer, unassigned; (-)) [Example 2a, (−)3-[(1H-1,3-benzodiazol-2-yl)amino]-N-methyl-3-[3(trifluoromethyl)phenyl]propanamide]	< 10
CNC(=O)CC(Nc1nc2cc(OC(F)(F)F)ccc2[nH]1)c1cccc(C(F)(F)F)c1 (centres unmarked) [Example 18, N-methyl-3-{[5-(trifluoromethoxy)-1H-1,3-benzodiazol-2-yl]amino}-3-[3-(trifluoromethyl)phenyl]propanamide; trifluoroacetic acid]	< 10
CNC(=O)CC(Nc1nc2ccccc2[nH]1)c1cccc(SC)c1 (centres unmarked) [Example 12, 3-[(1H-1,3-benzodiazol-2-yl)amino]-N-methyl-3-[3-(methylsulfanyl)phenyl]propanamide]	< 10
CN(C)C(=O)C(Nc1nc2ccccc2[nH]1)c1cccc(C(F)(F)F)c1 (centres unmarked) [Example 1, 2-[(1H-1,3-benzodiazol-2-yl)amino]-N,N-dimethyl-2-[3-(trifluoromethyl)phenyl]acetamide]	< 10
CNC(=O)CC(Nc1nc2c(Cl)cccc2[nH]1)c1cccc(C(F)(F)F)c1 (centres unmarked) [Example 20, 3-[(4-chloro-1H-1,3-benzodiazol-2-yl)amino]-N-methyl-3-[3-(trifluoromethyl)phenyl]propanamide]	< 10
Cc1c(F)ccc2[nH]c(NC(CC(N)=O)c3cccc(C(F)(F)F)c3)nc12 (centres unmarked) [Example 14, 3-[(5-fluoro-4-methyl-1H-1,3-benzodiazol-2-yl)amino]-3-[3-(trifluoromethyl)phenyl]propanamide]	< 10
C=CCNC(=O)CC(Nc1nc2ccccc2[nH]1)c1cccc(C(F)(F)F)c1 (centres unmarked) [Example 3, 3-[(1H-1,3-benzodiazol-2-yl)amino]-N-(prop-2-en-1-yl)-3-[3-(trifluoromethyl)phenyl]propanamide]	< 10
CNC(=O)CC(Nc1nc2c(COC)cccc2[nH]1)c1cccc(C(F)(F)F)c1 (centres unmarked) [Example 19, 3-{[4-(methoxymethyl)-1H-1,3-benzodiazol-2-yl]amino}-N-methyl-3-[3-(trifluoromethyl)phenyl]propanamide]	< 10
CNC(=O)CC(Nc1nc2c(CCO)cccc2[nH]1)c1cccc(C(F)(F)F)c1 (centres unmarked) [Example 6, 3-{[4-(2-hydroxyethyl)-1H-1,3-benzodiazol-2-yl]amino}-N-methyl-3-[3-(trifluoromethyl)phenyl]propanamide]	< 100
CNC(=O)CCC(Nc1nc2ccccc2[nH]1)c1cccc(C(F)(F)F)c1 (centres unmarked) [Example 25, 4-[(1H-1,3-benzodiazol-2-yl)amino]-N-methyl-4-[3-(trifluoromethyl)phenyl]butanamide]	< 10
CNC(=O)CC(Nc1nc2ccccc2[nH]1)c1cccc(C(=O)OC)c1 (centres unmarked) [Example 24, methyl 3-{1-[(1H-1,3-benzodiazol-2-yl)amino]-2-(methylcarbamoyl)ethyl}benzoate]	< 10
CON(C)C(=O)CC(Nc1nc2ccccc2[nH]1)c1cccc(C(F)(F)F)c1 (centres unmarked) [Example 11, 3-[(1H-1,3-benzodiazol-2-yl)amino]-N-methoxy-N-methyl-3-[3-(trifluoromethyl)phenyl]propanamide]	< 10
O=C(NC1CC1)C(Nc1nc2ccccc2[nH]1)c1cccc(C(F)(F)F)c1 (centres unmarked) [Example 16, 2-[(1H-1,3-benzodiazol-2-yl)amino]-N-cyclopropyl-2-[3-(trifluoromethyl)phenyl]acetamide]	< 10
CNC(=O)CC(Nc1nc2ccccc2[nH]1)c1ccc(Cl)c(Cl)c1 (centres unmarked) [Example 22, 3-[(1H-1,3-benzodiazol-2-yl)amino]-3-(3,4-dichlorophenyl)-N-methylpropanamide]	< 10
CNC(=O)CC(Nc1nc2c(C)cccc2[nH]1)c1cccc(C(F)(F)F)c1 (centres unmarked) [Example 5, N-methyl-3-[(4-methyl-1H-1,3-benzodiazol-2-yl)amino]-3-[3-(trifluoromethyl)phenyl]propanamide]	< 10
CNC(=O)CC(Nc1nc2c(CO)cccc2[nH]1)c1cccc(SC(F)(F)F)c1 (centres unmarked) [Example 21, 3-{[4-(hydroxymethyl)-1H-1,3-benzodiazol-2-yl]amino}-N-methyl-3-{3-[(trifluoromethyl)sulfanyl]phenyl}propanamide]	< 10
CNC(=O)CC(Nc1nc2ccccc2[nH]1)c1cccc(OC(F)(F)F)c1 (centres unmarked) [Example 13, 3-[(1H-1,3-benzodiazol-2-yl)amino]-N-methyl-3-[3-(trifluoromethoxy)phenyl]propanamide]	< 10
CNC(=O)CC(Nc1nc2cc(F)ccc2[nH]1)c1cccc(C(F)(F)F)c1 (centres unmarked) [Example 17, 3-[(5-fluoro-1H-1,3-benzodiazol-2-yl)amino]-N-methyl-3-[3-(trifluoromethyl)phenyl]propanamide]	< 10
COC(=O)C(Cc1cccc(C(F)(F)F)c1)Nc1nc2c(NC(C)=O)cccc2[nH]1 (centres unmarked) [Example 7, methyl 2-[(4-acetamido-1H-1,3-benzodiazol-2-yl)amino]-3-[3-(trifluoromethyl)phenyl]propanoate]	< 10
CNC(=O)CC(Nc1nc2ccccc2[nH]1)c1cc(C)c(F)c(C)c1 (centres unmarked) [Example 9, 3-[(1H-1,3-benzodiazol-2-yl)amino]-3-(4-fluoro-3,5-dimethylphenyl)-N-methylpropanamide]	< 10
CNC(=O)C(C)(Nc1nc2ccccc2[nH]1)c1cccc(C(F)(F)F)c1 (centres unmarked) [Example 26, 2-[(1H-1,3-benzodiazol-2-yl)amino]-N-methyl-2-[3-(trifluoromethyl)phenyl]propanamide; trifluoroacetic acid]	< 10
CNC(=O)CC(Nc1nc2c(C)c(F)ccc2[nH]1)c1cccc(C(F)(F)F)c1 (centres unmarked) [Example 4, 3-[(5-fluoro-4-methyl-1H-1,3-benzodiazol-2-yl)amino]-N-methyl-3-[3-(trifluoromethyl)phenyl]propanamide]	< 10
